Measured values: patent publication US6316190A (The United States of America as represented by the …)

Tests used:
[1] = system: HIV-1; conditions: cited from earlier work
[2] = system: synthetic peptide with a HIV-1 CCHC zinc finger; conditions: cited from earlier work
[3] = system: recombinant HIV-1 NC protein; assay: Surface plasmon resonance (BIAcore) binding of NC to immobilized biotinylated oligonucleotides; conditions: for NC binding to oligonucleotide (level and stability during washout): oligonucleotide on chip, 0.15M NaCl; for affinity for HIV-1 NC protein: oligonucleotides including the subsequence
Description: In a preferred embodiment, the assay format is surface plasmon resonance (SPR). The Kd and kinetics of the trial compound-protein interaction are determined in a BIAcore, a biosensor based on surface plasmon resonance. For this technique, protein or trial compound is coupled to a derivatized sensor chip capable of detecting changes in mass. When trial compound or protein is passed over the sensor chip, it binds to the trial compound or protein coupled to the chip, resulting in an increase in mass which is quantifiable. Measurement of the rate of association as a function of trial compound or protein concentration can be used to calculate the association rate constant (kon). After the association phase, buffer is passed over the chip and the rate of dissociation (koff) is determined. Kon is typically measured in the range 1.0×10^2 to 5.0×10^6 and koff in the range 1.0×10^-1 to 1.0×10^-6. The equilibrium constant Kd is often calculated as koff/kon and thus is typically measured in the range 10^-5 to 10^-12. Affinities measured in this manner correlate well with affinities measured in solution by fluorescence quench titration. See, Fisher and Fivash (1994) Curr. Opin. Biotechnol. 5:389-395; Fisher et al. (1994) Methods 6:389-395; Johnsson et al., (1991) Anal. Biochem., 198:268-277; Karlsson et al., (1991) J. Immunol. Methods., 145:229-240; and Johnsson et al., (1991) Anal. Biochem. 198:268-277.
NC has traditionally been described as a single-stranded nucleic acid-binding protein. To determine whether this conclusion is accurate under SPR conditions, we initially measured binding of recombinant HIV-1 NC to a single-stranded 28-base oligodeoxynucleotide. The sequence of this oligonucleotide contains 20 bases from the 3' end of HIV-1 proviral DNA (i.e., the 3' end of U5). Surface plasmon resonance (SPR) analysis was performed with biotinylated DNA immobilized at its 3' end.
This possibility was analyzed systematically in the following experiment. Four SPR chips were made containing TGTG (SEQ ID NO:3) at different densities. For each chip, the amount of streptavidin (which holds the biotinylated oligonucleotide on the chip) was measured by SPR analysis before the addition of TGTG (SEQ ID NO:3). The amount of TGTG (SEQ ID NO:3) added to each chip was then quantitated by SPR. Thus, for each chip the ratio of TGTG (SEQ ID NO:3) to streptavidin was empirically determined. Since a streptavidin molecule has four binding sites for biotinylated ligands, the number of streptavidin molecules occupied by 0, 1, 2, 3, or 4 oligonucleotides could be calculated from this ratio, using binomial expansion. Finally, the ability of each chip to bind NC with high affinity was determined by SPR.
Another important aspect of the experiments described here is that the analyses were performed in 0.15M NaCl. The sequence-independent electrostatic interaction between the positively charged NC protein and nucleic acids is obviously much lower at this moderate ionic strength than in more dilute buffers, so that the differences in affinity for different oligonucleotides are more apparent. […] The additional affinity of NC for a preferred sequence was shown by this analysis to be largely hydrophobic.

[4] = system: HIV-1 NC protein; assay: Tryptophan fluorescence titration of NC with oligonucleotide, then NaCl dissociation; type: binding; conditions: for apparent affinity of NC: fluorescence; for hydrophobic component, apparent affinity constant at 1M NaCl (K°) / K° relative to expected value (weighted average of corresponding homopolymers): 1M NaCl
[5] = system: "finger swap" mutants of NC (1.1, 2.2, 2.1); assay: SPR binding of "finger swap" mutant NC proteins to the 5' site; parameters: species or system HIV-1
[6] = system: 2.2 finger swap mutant protein; assay: Fluorescence binding of 2.2 finger swap mutant protein; parameters: species or system HIV-1; conditions: versus wild-type protein
[7] = target: T1, HIV-1 nucleocapsid protein (NC), wild type (Human immunodeficiency virus 1, UniProt P12493 P12493:378-432); assay: SPR; higher level and slower washout than site I DNA
[8] = target: T1, HIV-1 nucleocapsid protein (NC), wild …; assay: SPR; two NC per oligo; conditions: label: biotin
[9] = target: T1, HIV-1 nucleocapsid protein (NC), wild …; assay: SPR; 0.15 M NaCl; most stable of three subsites; relatively high affinity also by fluorescence; conditions: label: biotin
[10] = target: T1, HIV-1 nucleocapsid protein (NC), wild …; assay: SPR; conditions: label: 3'-biotin
[11] = target: T1, HIV-1 nucleocapsid protein (NC), wild …; assay: SPR; TGTG sufficient for high-affinity binding in A context; conditions: label: biotin
[12] = target: T1, HIV-1 nucleocapsid protein (NC), wild …; assay: SPR; TGTG replaced by AAAA; no high-affinity binding; conditions: label: biotin
[13] = target: T1, HIV-1 nucleocapsid protein (NC), wild …; assay: SPR; four NC per oligo; conditions: label: biotin
[14] = target: T1, HIV-1 nucleocapsid protein (NC), wild …; assay: SPR; negligible binding; conditions: label: biotin
[15] = target: T1, HIV-1 nucleocapsid protein (NC), wild …; assay: SPR; 0.15 M NaCl; second independent mode (fast-released fraction); conditions: label: biotin (SPR)
[16] = target: T1, HIV-1 nucleocapsid protein (NC), wild …; assay: SPR; 0.15 M NaCl; tight binding mode (slow washout); conditions: label: biotin (SPR)
[17] = quantitative analysis of SPR data

NC(=O)c1cccc(N=O)c1 [NOBA, 3-nitroso benzamide]
effect on virus [1]: viral inactivation
effect on zinc of zinc finger peptide [2]: loss of zinc

(TG)5
number of NC molecules bound per oligonucleotide ([3]; SPR): two

(TG)10
number of NC molecules bound per oligonucleotide ([3]; SPR): four

(dT)9
hydrophobic component, apparent affinity constant at 1M NaCl (K°) [4]: 5×10^1

AAAATCTCTA [site II]
NC binding to oligonucleotide (level and stability during washout) ([3]; SPR): negligible binding

AAAATGTGAA
NC binding to oligonucleotide (level and stability during washout) ([3]; SPR): binding

GACTTGTGG [Site I]
binding of mutant proteins [5]: some binding
washout of mutant proteins ([5]; versus wild-type protein): washed out considerably faster than the wild-type protein
apparent affinity of 2.2 mutant [6]: lower apparent affinity than that of wild-type protein
apparent affinity of NC [4]: relatively high affinity
dependence of binding on oligonucleotide density ([3]; SPR): essentially independent
NC binding to oligonucleotide (level and stability during washout) ([3]; SPR): most stable binding

GACTTGTGGA
affinity for HIV-1 NC protein [3]: nanomolar range

GACUUGUGG (chemistry not given here)
NC binding to oligonucleotide (level and stability during washout) ([3]; SPR): at a higher level and washes out more slowly than the binding to the DNA
affinity for HIV-1 NC protein [3]: nanomolar range

GCAGTGCAT [site III]
NC binding to oligonucleotide (level and stability during washout) ([3]; SPR): significant binding, but at a lower level and a more rapid loss during the washout than was observed with site I

GTGTG
number of NC molecules bound per oligonucleotide ([3]; SPR): single
NC binding to oligonucleotide (level and stability during washout) ([3]; SPR): high-affinity binding sites

TGTG (DNA, backbone not given here)
high-affinity binding of NC ([3]; highest oligonucleotide density on chip (FIG. 6D)): high-affinity binding is achieved
initial binding of NC ([3]; oligonucleotide at low density (FIG. 6A)): substantial degree of initial binding

TGTGT
number of NC molecules bound per oligonucleotide ([3]; SPR): single
NC binding to oligonucleotide (level and stability during washout) ([3]; SPR): high-affinity binding sites

TGTGTG
affinity for HIV-1 NC protein [3]: nanomolar range

TGTGTGTG [d(TG)4]
K° relative to expected value (weighted average of corresponding homopolymers) [4]: 145 times
hydrophobic component, apparent affinity constant at 1M NaCl (K°) [4]: 2.3×10^4
difference in binding energy ([4]; d(TG)4 versus d(IT)4, inferred from difference in affinity): ~ 1 kcal/mole
apparent affinity of NC [4]: highest affinity
dependence of binding on oligonucleotide density ([3]; SPR): essentially independent
number of NC molecules bound per oligonucleotide ([3]; SPR): one
Ka, binding system released more rapidly during washout [3, 17]: 1×10^7
Ka, binding system responsible for slow washout [3, 17]: 2e+09 M⁻¹

d(G)9
apparent affinity of NC [4]: higher than that for the other hompolymeric oligodeoxynucleotides
extent of binding and retention of NC during washout relative to site 1 ([3]; SPR): far lower than seen with site 1 sequences
NC binding to oligonucleotide (level and stability during washout) ([3]; SPR): clear preference

d(GA)4
K° relative to expected value (weighted average of corresponding homopolymers) [4]: coincided with the value that would be predicted

d(IT)4
K° relative to expected value (weighted average of corresponding homopolymers) [4]: 10 times

d(T)10
NC binding to oligonucleotide (level and stability during washout) ([3]; SPR): detectable binding

GACUUGUGG (ssRNA) [site I RNA]
binding result [7]: binds

TGTGTGTGTG (ssDNA) [(TG)5]
binding result [8]: binds

GACTTGTGG (ssDNA) [site I]
binding result [9]: binds

GACTTGTGGAAAATCTCTAGCAGTGCAT (ssDNA) [28-mer ss oligodeoxynucleotide (HIV-1 U5 3' end)]
binding result [10]: binds

AAAATGTGAA (ssDNA)
binding result [11]: binds

GACTAAAAGA (ssDNA)
binding result [12]: no binding

TGTGTGTGTGTGTGTGTGTG (ssDNA) [(TG)10]
binding result [13]: binds

AAAATCTCTA (ssDNA) [site II]
binding result [14]: no binding

TGTGTGTG (ssDNA) [d(TG)4]
Ka [15]: 1e+07 M⁻¹
Ka [16]: 2e+09 M⁻¹
